Columns and labels:
Assay in all cases: KinomeScan
Assay type in all cases: binding
Conditions in all cases: 1 μM
LATS2 = biological target: T1, LATS2 (Homo sapiens, UniProt Q9NRM7)
T1 construct: purchased DiscoverX (KINOMEscan)
Description: (§1) Assays were performed essentially as described previously. For most assays, kinase-tagged T7 phage strains were grown in parallel in 24-well blocks in an E. coli host derived from the BL21 strain. E. coli were grown to log-phase and infected with T7 phage from a frozen stock (multiplicity of infection ~0.1) and incubated with shaking at 32 °C until lysis (~90 min). The lysates were centrifuged (6000× g) and filtered (0.2 μm) to remove cell debris. The remaining kinases were produced in HEK-293 cells and subsequently tagged with DNA for qPCR detection. […] The liganded beads were blocked with excess biotin and washed with blocking buffer (SeaBlock (Pierce, ThermoFisher Scientific, Illkirch, France), 1% BSA, 0.05% Tween 20, 1 mM DTT) to remove unbound ligand and to reduce non-specific phage binding. […] An 11-point threefold serial dilution of each test compound was prepared in 100% DMSO at 100× final test concentration which and subsequently diluted to 1× in the assay. All reactions were performed in polystyrene 96-well plates in a final volume of 0.135 mL. […] The kinase concentration in the eluates was measured by qPCR.

ABL2 = biological target: T2, ABL2 (Homo sapiens, UniProt P42684)
T2 construct: purchased DiscoverX (KINOMEscan)
Description: as §1

KIT(V559D,T670I) = biological target: T3, KIT(V559D,T670I) (Homo sapiens, UniProt P10721, T670I/V559D)
T3 construct: purchased DiscoverX (KINOMEscan)
Description: as §1

ZAP70 = biological target: T4, ZAP70 (Homo sapiens, UniProt P43403)
T4 construct: purchased DiscoverX (KINOMEscan)
Description: as §1

DYRK1A = DYRK1A (Homo sapiens, UniProt Q13627)
Description: as §1

[1] = biological target: T5, ABL1(Y253F)-phosphorylated (Homo sapiens, UniProt P00519, Y253F)
T5 construct: purchased DiscoverX (KINOMEscan)
Description: as §1

MYLK4 = biological target: T6, MYLK4 (Homo sapiens, UniProt Q86YV6)
T6 construct: purchased DiscoverX (KINOMEscan)
Description: as §1

YSK1 = biological target: T7, YSK1 (Homo sapiens, UniProt O00506)
T7 construct: purchased DiscoverX (KINOMEscan)
Description: as §1

EPHB4 = biological target: T8, EPHB4 (Homo sapiens, UniProt P54760)
T8 construct: purchased DiscoverX (KINOMEscan)
Description: as §1

MEK4 = biological target: T9, MEK4 (Homo sapiens, UniProt P45985)
T9 construct: purchased DiscoverX (KINOMEscan)
Description: as §1

[2] = biological target: T10, JAK1(JH1domain-catalytic) (Homo sapiens, UniProt P23458)
T10 construct: JAK1(JH1domain-catalytic); purchased DiscoverX (KINOMEscan)
Description: as §1

MLK2 = biological target: T11, MLK2 (Homo sapiens, UniProt Q02779)
T11 construct: purchased DiscoverX (KINOMEscan)
Description: as §1

HIPK4 = biological target: T12, HIPK4 (Homo sapiens, UniProt Q8NE63)
T12 construct: purchased DiscoverX (KINOMEscan)
Description: as §1

NEK9 = biological target: T13, NEK9 (Homo sapiens, UniProt Q8TD19)
T13 construct: purchased DiscoverX (KINOMEscan)
Description: as §1

IGF1R = biological target: T14, IGF1R (Homo sapiens, UniProt P08069)
T14 construct: purchased DiscoverX (KINOMEscan)
Description: as §1

BRAF = biological target: T15, BRAF (Homo sapiens, UniProt P15056)
T15 construct: purchased DiscoverX (KINOMEscan)
Description: as §1

FLT3(N841I) = biological target: T16, FLT3(N841I) (Homo sapiens, UniProt P36888, N841I)
T16 construct: purchased DiscoverX (KINOMEscan)
Description: as §1

DAPK2 = biological target: T17, DAPK2 (Homo sapiens, UniProt Q9UIK4)
T17 construct: purchased DiscoverX (KINOMEscan)
Description: as §1

KIT = biological target: T18, KIT (Homo sapiens, UniProt P10721)
T18 construct: purchased DiscoverX (KINOMEscan)
Description: as §1

TAK1 = biological target: T19, TAK1 (Homo sapiens, UniProt O43318)
T19 construct: purchased DiscoverX (KINOMEscan)
Description: as §1

DDR1 = biological target: T20, DDR1 (Homo sapiens, UniProt Q08345)
T20 construct: purchased DiscoverX (KINOMEscan)
Description: as §1

FLT3 = biological target: T21, FLT3 (Homo sapiens, UniProt P36888)
T21 construct: purchased DiscoverX (KINOMEscan)
Description: as §1

ABL1-phosphorylated = biological target: T22, ABL1-phosphorylated (Homo sapiens, UniProt P00519)
T22 construct: purchased DiscoverX (KINOMEscan)
Description: as §1

TTK = biological target: T23, TTK (Homo sapiens, UniProt P33981)
T23 construct: purchased DiscoverX (KINOMEscan)
Description: as §1

TBK1 = biological target: T24, TBK1 (Homo sapiens, UniProt Q9UHD2)
T24 construct: purchased DiscoverX (KINOMEscan)
Description: as §1

JNK1 = biological target: T25, JNK1 (Homo sapiens, UniProt P45983)
T25 construct: purchased DiscoverX (KINOMEscan)
Description: as §1

CLK3 = biological target: T26, CLK3 (Homo sapiens, UniProt P49761)
T26 construct: purchased DiscoverX (KINOMEscan)
Description: as §1

MRCKA = biological target: T27, MRCKA (Homo sapiens, UniProt Q5VT25)
T27 construct: purchased DiscoverX (KINOMEscan)
Description: as §1

NEK5 = biological target: T28, NEK5 (Homo sapiens, UniProt Q6P3R8)
T28 construct: purchased DiscoverX (KINOMEscan)
Description: as §1

KIT(A829P) = biological target: T29, KIT(A829P) (Homo sapiens, UniProt P10721, A829P)
T29 construct: purchased DiscoverX (KINOMEscan)
Description: as §1

ARK5 = biological target: T30, ARK5 (Homo sapiens, UniProt O60285)
T30 construct: purchased DiscoverX (KINOMEscan)
Description: as §1

CHEK2 = biological target: T31, CHEK2 (Homo sapiens, UniProt O96017)
T31 construct: purchased DiscoverX (KINOMEscan)
Description: as §1

BRSK1 = biological target: T32, BRSK1 (Homo sapiens, UniProt Q8TDC3)
T32 construct: purchased DiscoverX (KINOMEscan)
Description: as §1

YANK2 = biological target: T33, YANK2 (Homo sapiens, UniProt Q9NY57)
T33 construct: purchased DiscoverX (KINOMEscan)
Description: as §1

SIK = biological target: T34, SIK (Homo sapiens, UniProt P57059)
T34 construct: purchased DiscoverX (KINOMEscan)
Description: as §1

MAP4K3 = biological target: T35, MAP4K3 (Homo sapiens, UniProt Q8IVH8)
T35 construct: purchased DiscoverX (KINOMEscan)
Description: as §1

LTK = biological target: T36, LTK (Homo sapiens, UniProt P29376)
T36 construct: purchased DiscoverX (KINOMEscan)
Description: as §1

T29 sequence (P10721 26-976 A829P): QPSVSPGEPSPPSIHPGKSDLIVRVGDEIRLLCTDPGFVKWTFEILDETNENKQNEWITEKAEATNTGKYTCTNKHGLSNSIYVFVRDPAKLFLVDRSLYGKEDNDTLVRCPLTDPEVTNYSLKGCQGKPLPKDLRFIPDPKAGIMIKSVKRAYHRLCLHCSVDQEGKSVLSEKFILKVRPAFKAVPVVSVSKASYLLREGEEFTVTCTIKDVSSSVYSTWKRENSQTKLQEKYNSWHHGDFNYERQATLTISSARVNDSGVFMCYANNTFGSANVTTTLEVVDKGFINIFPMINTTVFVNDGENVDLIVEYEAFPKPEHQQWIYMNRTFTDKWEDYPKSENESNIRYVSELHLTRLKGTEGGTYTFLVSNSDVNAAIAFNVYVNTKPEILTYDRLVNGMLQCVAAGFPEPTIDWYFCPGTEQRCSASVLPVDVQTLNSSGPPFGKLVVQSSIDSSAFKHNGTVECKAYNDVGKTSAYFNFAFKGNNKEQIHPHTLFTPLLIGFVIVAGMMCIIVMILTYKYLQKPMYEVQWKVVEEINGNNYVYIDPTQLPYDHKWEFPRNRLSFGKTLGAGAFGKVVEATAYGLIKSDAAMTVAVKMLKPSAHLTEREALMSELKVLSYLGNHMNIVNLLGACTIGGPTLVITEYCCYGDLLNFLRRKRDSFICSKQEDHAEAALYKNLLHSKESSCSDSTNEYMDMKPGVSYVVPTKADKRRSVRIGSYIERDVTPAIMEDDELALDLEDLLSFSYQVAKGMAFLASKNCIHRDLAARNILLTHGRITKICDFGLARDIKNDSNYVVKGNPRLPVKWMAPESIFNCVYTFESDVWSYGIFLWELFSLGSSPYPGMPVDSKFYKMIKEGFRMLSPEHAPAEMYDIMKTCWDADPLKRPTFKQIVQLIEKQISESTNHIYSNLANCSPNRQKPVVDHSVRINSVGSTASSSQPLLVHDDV
T12 sequence (Q8NE63 whole entry): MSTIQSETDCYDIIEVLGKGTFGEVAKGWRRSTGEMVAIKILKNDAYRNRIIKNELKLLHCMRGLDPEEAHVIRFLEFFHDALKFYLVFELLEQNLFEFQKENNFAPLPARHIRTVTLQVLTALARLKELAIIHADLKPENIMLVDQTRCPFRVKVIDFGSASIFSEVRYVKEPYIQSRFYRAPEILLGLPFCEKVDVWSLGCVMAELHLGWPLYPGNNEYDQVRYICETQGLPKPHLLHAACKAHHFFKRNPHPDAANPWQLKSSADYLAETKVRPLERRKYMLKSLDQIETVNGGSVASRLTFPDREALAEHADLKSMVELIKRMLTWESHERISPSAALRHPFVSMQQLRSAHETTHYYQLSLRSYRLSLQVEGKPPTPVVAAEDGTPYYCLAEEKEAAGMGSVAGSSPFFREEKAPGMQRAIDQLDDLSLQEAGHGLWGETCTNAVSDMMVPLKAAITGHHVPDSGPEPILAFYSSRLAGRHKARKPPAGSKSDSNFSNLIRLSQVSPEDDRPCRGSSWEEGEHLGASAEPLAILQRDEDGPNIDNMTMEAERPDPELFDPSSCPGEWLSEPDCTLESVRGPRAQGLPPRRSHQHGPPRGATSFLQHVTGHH
T33 sequence (Q9NY57 whole entry): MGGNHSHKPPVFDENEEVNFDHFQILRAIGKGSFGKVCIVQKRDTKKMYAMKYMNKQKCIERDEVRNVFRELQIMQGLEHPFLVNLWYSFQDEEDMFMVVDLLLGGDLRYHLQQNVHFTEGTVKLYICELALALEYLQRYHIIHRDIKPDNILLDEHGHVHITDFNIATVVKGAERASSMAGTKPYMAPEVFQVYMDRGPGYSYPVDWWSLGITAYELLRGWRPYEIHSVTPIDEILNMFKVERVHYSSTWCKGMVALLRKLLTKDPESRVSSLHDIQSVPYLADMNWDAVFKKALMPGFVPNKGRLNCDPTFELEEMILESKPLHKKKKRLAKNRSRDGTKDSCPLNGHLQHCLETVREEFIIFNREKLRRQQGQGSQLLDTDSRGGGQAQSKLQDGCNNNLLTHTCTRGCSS
T30 sequence (O60285 whole entry): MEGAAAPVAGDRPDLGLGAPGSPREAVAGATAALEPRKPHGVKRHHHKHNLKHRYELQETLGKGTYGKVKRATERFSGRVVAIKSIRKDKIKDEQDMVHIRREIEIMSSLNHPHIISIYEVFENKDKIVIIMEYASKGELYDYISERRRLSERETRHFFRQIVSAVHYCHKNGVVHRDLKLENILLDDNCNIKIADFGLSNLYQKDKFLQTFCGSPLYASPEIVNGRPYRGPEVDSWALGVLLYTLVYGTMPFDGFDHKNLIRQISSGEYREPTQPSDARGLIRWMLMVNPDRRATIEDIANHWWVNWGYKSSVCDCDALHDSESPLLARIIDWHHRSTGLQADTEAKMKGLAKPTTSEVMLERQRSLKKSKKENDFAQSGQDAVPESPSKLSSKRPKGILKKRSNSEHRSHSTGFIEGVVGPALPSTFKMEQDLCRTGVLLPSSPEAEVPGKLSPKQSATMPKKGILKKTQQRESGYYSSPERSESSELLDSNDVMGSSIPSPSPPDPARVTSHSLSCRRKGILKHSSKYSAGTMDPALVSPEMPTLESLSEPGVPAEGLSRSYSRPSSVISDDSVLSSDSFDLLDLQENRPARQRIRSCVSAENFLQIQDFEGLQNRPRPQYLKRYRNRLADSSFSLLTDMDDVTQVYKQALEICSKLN
T32 sequence (Q8TDC3 whole entry): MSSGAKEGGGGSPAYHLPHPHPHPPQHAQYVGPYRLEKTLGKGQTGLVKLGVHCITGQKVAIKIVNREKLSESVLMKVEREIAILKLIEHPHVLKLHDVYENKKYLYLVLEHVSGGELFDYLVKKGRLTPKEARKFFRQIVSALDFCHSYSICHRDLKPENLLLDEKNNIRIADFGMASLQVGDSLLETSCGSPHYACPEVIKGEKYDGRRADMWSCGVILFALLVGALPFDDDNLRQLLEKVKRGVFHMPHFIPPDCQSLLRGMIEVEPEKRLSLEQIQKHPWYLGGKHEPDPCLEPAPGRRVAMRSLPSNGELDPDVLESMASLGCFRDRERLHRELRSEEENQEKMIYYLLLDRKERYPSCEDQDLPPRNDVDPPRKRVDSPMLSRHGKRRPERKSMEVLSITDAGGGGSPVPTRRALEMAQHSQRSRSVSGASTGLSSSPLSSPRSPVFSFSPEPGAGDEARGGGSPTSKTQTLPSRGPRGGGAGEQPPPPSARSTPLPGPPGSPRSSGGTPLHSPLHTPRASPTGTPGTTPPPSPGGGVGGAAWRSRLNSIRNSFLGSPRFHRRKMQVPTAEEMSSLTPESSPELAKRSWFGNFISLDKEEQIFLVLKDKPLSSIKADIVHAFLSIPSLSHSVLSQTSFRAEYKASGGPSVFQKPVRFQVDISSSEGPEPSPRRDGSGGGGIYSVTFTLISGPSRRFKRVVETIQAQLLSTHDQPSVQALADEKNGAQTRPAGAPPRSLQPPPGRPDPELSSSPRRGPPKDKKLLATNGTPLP
T15 sequence (P15056 whole entry): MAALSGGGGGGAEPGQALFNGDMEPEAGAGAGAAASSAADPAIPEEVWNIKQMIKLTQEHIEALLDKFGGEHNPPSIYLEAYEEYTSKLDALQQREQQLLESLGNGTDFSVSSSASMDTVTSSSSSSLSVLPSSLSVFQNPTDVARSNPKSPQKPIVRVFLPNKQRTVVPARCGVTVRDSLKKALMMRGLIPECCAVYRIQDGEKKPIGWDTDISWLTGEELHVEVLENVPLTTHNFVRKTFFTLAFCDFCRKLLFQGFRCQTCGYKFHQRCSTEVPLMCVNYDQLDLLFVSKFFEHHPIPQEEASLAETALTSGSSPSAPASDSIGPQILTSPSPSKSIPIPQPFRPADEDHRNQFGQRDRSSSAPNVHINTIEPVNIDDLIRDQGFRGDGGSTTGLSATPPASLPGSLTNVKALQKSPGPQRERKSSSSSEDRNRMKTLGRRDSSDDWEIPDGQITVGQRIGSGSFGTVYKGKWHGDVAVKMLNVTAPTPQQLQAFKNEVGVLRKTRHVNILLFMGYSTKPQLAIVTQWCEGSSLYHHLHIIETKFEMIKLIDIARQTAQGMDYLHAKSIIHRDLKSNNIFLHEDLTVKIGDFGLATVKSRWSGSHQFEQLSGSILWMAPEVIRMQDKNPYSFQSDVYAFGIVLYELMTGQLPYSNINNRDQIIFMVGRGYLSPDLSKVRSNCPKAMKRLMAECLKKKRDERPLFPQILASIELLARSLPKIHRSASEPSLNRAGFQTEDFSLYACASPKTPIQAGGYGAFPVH
T4 sequence (P43403 whole entry): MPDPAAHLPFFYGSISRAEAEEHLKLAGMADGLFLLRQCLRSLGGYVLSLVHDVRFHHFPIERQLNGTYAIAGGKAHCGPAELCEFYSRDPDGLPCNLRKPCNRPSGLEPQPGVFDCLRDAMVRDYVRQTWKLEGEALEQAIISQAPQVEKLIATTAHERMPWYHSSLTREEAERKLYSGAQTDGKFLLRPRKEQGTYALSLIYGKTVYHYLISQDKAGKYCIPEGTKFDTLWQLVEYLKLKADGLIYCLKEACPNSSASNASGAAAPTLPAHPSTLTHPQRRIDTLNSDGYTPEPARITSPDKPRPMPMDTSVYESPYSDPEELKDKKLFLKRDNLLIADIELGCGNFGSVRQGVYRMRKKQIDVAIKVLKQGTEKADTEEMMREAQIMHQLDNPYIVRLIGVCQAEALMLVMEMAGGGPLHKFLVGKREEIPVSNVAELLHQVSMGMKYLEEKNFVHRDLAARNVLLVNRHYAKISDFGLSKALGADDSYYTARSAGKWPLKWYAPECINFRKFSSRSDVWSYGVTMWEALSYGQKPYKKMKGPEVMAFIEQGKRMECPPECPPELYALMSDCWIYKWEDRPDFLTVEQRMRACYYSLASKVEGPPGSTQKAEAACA
T18 sequence (P10721 26-976): as the sequence (P10721 26-976 A829P) above, with P804A counted along it
T3 sequence (P10721 26-976 V559D/T670I): as the sequence (P10721 26-976 A829P) above, with V534D, T645I, P804A counted along it

COc1cc(/C=C2\N=C(N)NC2=O)ccc1O [Polyandrocarpamine A]
Score (LATS2): 100
Score (ABL2): 87
Score (KIT(V559D,T670I)): 85
Score (ZAP70): 100
Score (DYRK1A): 3
Score [1]: 100
Score (MYLK4): 96
Score (YSK1): 100
Score (EPHB4): 100
Score (MEK4): 100
Score [2]: 72
Score (MLK2): 100
Score (HIPK4): 85
Score (NEK9): 100
Score (IGF1R): 100
Score (BRAF): 100
Score (FLT3(N841I)): 100
Score (DAPK2): 58
Score (KIT): 87
Score (TAK1): 100
Score (DDR1): 100
Score (FLT3): 100
Score (ABL1-phosphorylated): 100
Score (TTK): 100
Score (TBK1): 100
Score (JNK1): 100
Score (CLK3): 69
Score (MRCKA): 100
Score (NEK5): 95
Score (KIT(A829P)): 91
Score (ARK5): 71
Score (CHEK2): 100
Score (BRSK1): 100
Score (YANK2): 94
Score (SIK): 100
Score (MAP4K3): 78
Score (LTK): 100
